Reference: patent US11001561B2, “Pyrimidinone derivatives as SHP2 antagonists” (MERCK PATENT GMBH, priority 2019, dated 2021)
Where a name gives a salt, the structure may show the parent alone.

target: Full length SHP2 protein (Recombinant Human SHP-2) (Homo sapiens (Human), UniProt Q06124); assay: SHP2 biochemical assay (DiFMUP substrate, activating peptide IRSI_2pY); details: SHP-2 biochemical assay IC50 (μM), activating peptide IRSI_2pY 140 nM, DiFMUP, 60 min
Method: The inhibition of SHP2 by compounds of the invention was monitored using the surrogate substrate DiFMUP after protein activation by a peptide bearing two appropriately spaced phosphotyrosine. […] The generation of the DiFMU product by activated SHP2 was monitored through Fluorescence measurement with a PerkinElmer Envision reader. The inhibitor dose response curves were analyzed with Genedata Screener.

Row | Compound | IC50 [µM]
1 | Cc1c(N2C[C@H]3COC[C@@]3(CN)C2)nc(C)n(-c2cccc(Cl)c2Cl)c1=O (racemic) [Compound 34, (+/−)-6-[(3aS,6aS)-3a-(aminomethyl)-hexahydro-1H-furo[3,4-c]pyrrol-5-yl]-3-(2,3-dichlorophenyl)-2,5-dimethyl-3,4-dihydropyrimidin-4-one] | 1.7
2 | Cc1nc(N2CCC[C@](N)(CC(F)F)CC2)cc(=O)n1-c1cccc(Cl)c1Cl (racemic) [Compound 58a, (+/−)-(3M)-6-4-[(1R)-4-amino-4-(2,2-difluoroethyl)-azepan-1-yl]-3-(2,3-dichlorophenyl)-2-methyl-3,4-dihydropyrimidin-4-one] | > 10
3 | Cc1nc(N2CCC[C@](N)(CC(F)F)CC2)cc(=O)n1-c1cccc(Cl)c1Cl (racemic) [Compound 58b, (+/−)-(3P)-6-4-[(1R)-4-amino-4-(2,2-difluoroethyl)-azepan-1-yl]-3-(2,3-dichlorophenyl)-2-methyl-3,4-dihydropyrimidin-4-one] | 1.3
4 | Cc1nc(N(C)[C@H]2CC[C@](C)(N)CC2)cc(=O)n1-c1cccc(Cl)c1Cl (single isomer, unassigned) [Compound 71a, 3-(2,3-dichlorophenyl)-2-methyl-6-{methyl[(trans)-4-amino-4-methylcyclohexyl]amino}-3,4-dihydropyrimidin-4-one] | > 50
5 | Cc1nc(N(C)[C@H]2CC[C@@](C)(N)CC2)cc(=O)n1-c1cccc(Cl)c1Cl (single isomer, unassigned) [Compound 71b, 3-(2,3-dichlorophenyl)-2-methyl-6-{methyl[(cis)-4-amino-4-methylcyclohexyl]amino}-3,4-dihydropyrimidin-4-one] | 20
6 | Cc1nc(N2CCC3(CC2)CO[C@@H](C)[C@H]3N)cc(=O)n1-c1c(F)ccc(Cl)c1Cl (single isomer, unassigned) [Compound 32b] | 1.9
7 | Cc1nc(C2=CC[C@@](C)(N)CC2)cc(=O)n1-c1cccc(Cl)c1Cl (racemic) [Compound 6a, (+/−)-(3M)-6-[(4S)-4-amino-4-methylcyclohex-1-en-1-yl]-3-(2,3-dichlorophenyl)-2-methyl-3,4-dihydropyrimidin-4-one] | 19
8 | Cc1nc(N2CCC(C)(N3CC[C@H](O)C3)CC2)cc(=O)n1-c1cccc(Cl)c1Cl (racemic) [Compound 72b, (+/−)-(3M)-3-(2,3-dichlorophenyl)-6-{4-[(3R)-3-hydroxy-pyrrolidin-1-yl]-4-methylpiperidin-1-yl}-2-methyl-3,4-dihydropyrimidin-4-one] | 6.4

same assay, conditions: activating peptide IRSI_2pY 140 nM, DiFMUP, 60 min; read-out: SHP-2 biochemical assay IC50

Row | Compound | IC50 [µM]
9 | Cc1c(N2CCC(C)(N)CC2)nc(C)n(-c2cccc3ncsc23)c1=O [Compound 43, 6-(4-Amino-4-methyl-piperidin-1-yl)-3-benzothiazol-7-yl-2,5-dimethyl-3H-pyrimidin-4-one] | > 10
10 | Cc1nc(N2CCC3(CC2)CO[C@@H](C)[C@H]3N)cc(=O)n1-c1ccccc1 [Compound 7, 6-[(3S,4S)-4-amino-3-methyl-2-oxa-8-azaspiro[4.5]decan-8-yl]-2-methyl-3-phenyl-3,4-dihydropyrimidin-4-one] | 4.8
11 | Cc1c(N2CCC(C)(CN)CC2)nc(N)n(-c2cccc(Cl)c2Cl)c1=O [Compound 114, 2-Amino-6-(4-aminomethyl-4-methyl-piperidin-1-yl)-3-(2,3-dichloro-phenyl)-5-methyl-3H-pyrimidin-4-one] | 1.4
12 | Cc1c(N2CCC(C)(N)CC2)nc(C)n(-c2cccc(Cl)c2Cl)c1=O [Compound 12, 6-(4-amino-4-methylpiperidin-1-yl)-3-(2,3-dichlorophenyl)-2,5-dimethyl-3,4-dihydropyrimidin-4-one] | 1
13 | Cc1nc(N2CCC(C)(N)CC2)c(Cl)c(=O)n1-c1cccc(Cl)c1Cl [Compound 10, 6-(4-amino-4-methylpiperidin-1-yl)-5-chloro-3-(2,3-dichlorophenyl)-2-methyl-3,4-dihydropyrimidin-4-one] | 1.1
14 | Cc1c(N2CCC3(CC2)CO[C@@H](C)[C@H]3N)nc(C)n(-c2cccc3ncsc23)c1=O [Compound 84, 6-((3S,4S)-4-Amino-3-methyl-2-oxa-8-aza-spiro[4.5]dec-8-yl)-3-benzothiazol-7-yl-2,5-dimethyl-3H-pyrimidin-4-one] | > 10
15 | (3M)-6-[(3aR,6aS)-3a-(aminomethyl)-5- (hydroxymethyl)- octahydrocyclopenta[c]pyrrol-2-yl]-3- (2,3-dichlorophenyl)-2,5-dimethyl-3,4- dihydropyrimidin-4-one [Compound 101] | 0.23
16 | Cc1nc(N2CCC(C)(CN)CC2)cc(=O)n1-c1cccc(Cl)c1Cl [Compound 4, 6-[4-(aminomethyl)-4-methylpiperidin-1-yl]-3-(2,3-dichlorophenyl)-2-methyl-3,4-dihydropyrimidin-4-one] | 0.26
17 | COc1c(N2CCC3(CC2)CO[C@@H](C)[C@H]3N)nc(C)n(-c2cccc(Cl)c2Cl)c1=O (single isomer, unassigned) [Compound 73a] | > 10
18 | Cc1c(N2CCO[C@H](CN)C2)nc(C)n(-c2cccc(Cl)c2Cl)c1=O [Compound 92, 6-[(2R)-2-(aminomethyl)morpholin-4-yl]-3-(2,3-dichlorophenyl)-2,5-dimethyl-3,4-dihydropyrimidin-4-one] | 16
19 | Cc1nc(N2CCC(NC[C@@H](O)CO)CC2)cc(=O)n1-c1cccc(Cl)c1Cl [Compound 41, 3-(2,3-dichlorophenyl)-6-(4-{[(2R)-2,3-dihydroxypropyl]-amino}piperidin-1-yl)-2-methyl-3,4-dihydropyrimidin-4-one] | 2.5
20 | Cc1ccc(Cl)c(Cl)c1-n1c(C)nc(N2CCC3(CC2)CO[C@@H](C)[C@H]3N)c(C)c1=O [Compound 102, 6-((3S,4S)-4-Amino-3-methyl-2-oxa-8-aza-spiro[4.5]dec-8-yl)-3-(2,3-dichloro-6-methyl-phenyl)-2,5-dimethyl-3H-pyrimidin-4-one] | 7.3
21 | Cc1nc(N2CCC3(CC2)CC3CN)cc(=O)n1-c1cccc(Cl)c1Cl (stereo not drawn) [Compound 13, 6-[1-(aminomethyl)-6-azaspiro[2.5]octan-6-yl]-3-(2,3-dichlorophenyl)-2-methyl-3,4-dihydropyrimidin-4-one] | 4.3
22 | Cc1nc(N2CCC3(CCC[C@H]3N)CC2)cc(=O)n1-c1cccc(Cl)c1Cl (single isomer, unassigned) [Compound 62a] | > 10
23 | Cc1c(N2CCCC(N)(CC(C)O)CC2)nc(C)n(-c2cccc(Cl)c2Cl)c1=O (stereo not drawn) [Compound 115, (3M)-6-[4-amino-4-(2-hydroxypropyl)azepan-1-yl]-3-(2,3-dichlorophenyl)-2,5-dimethyl-3,4-dihydropyrimidin-4-one] | 3.8
24 | Cc1nc(N2CCC(N)(C(N)=O)CC2)cc(=O)n1-c1cccc(Cl)c1Cl [Compound 22, 4-amino-1-[1-(2,3-dichlorophenyl)-2-methyl-6-oxo-1,6-dihydropyrimidin-4-yl]piperidine-4-carboxamide] | 2.1
25 | Cc1nc(N2CCC3(CC2)CO[C@@H](C)[C@H]3N)cc(=O)n1-c1c(F)ccc(Cl)c1Cl (single isomer, unassigned) [Compound 32a] | > 10
26 | COCC(O)CNC1CCN(c2cc(=O)n(-c3cccc(Cl)c3Cl)c(C)n2)CC1 (stereo not drawn) [Compound 46, 3-(2,3-dichlorophenyl)-6-{4-[(2-hydroxy-3-methoxypropyl)-amino]piperidin-1-yl}-2-methyl-3,4-dihydropyrimidin-4-one] | > 10
27 | CSc1nc(N2CCC(C)(N)CC2)cc(=O)n1-c1cccc(Cl)c1Cl [Compound 1, 6-(4-amino-4-methylpiperidin-1-yl)-3-(2,3-dichlorophenyl)-2-(methylsulfanyl)-3,4-dihydropyrimidin-4-one] | 8.6
28 | Cc1nc(N2CCN3C(=O)C(N)CC3C2)cc(=O)n1-c1cccc(Cl)c1Cl (stereo not drawn) [Compound 61, 6-7-amino-6-oxo-octahydropyrrolo[1,2-a]pyrazin-2-yl-3-(2,3-dichlorophenyl)-2-methyl-3,4-dihydropyrimidin-4-one] | > 10
29 | Cc1nc(N2CCC3(CC2)CO[C@@H](C)[C@H]3N)c(CCO)c(=O)n1-c1cccc(Cl)c1Cl [Compound 76, 6-[(3S,4S)-4-amino-3-methyl-2-oxa-8-azaspiro[4.5]decan-8-yl]-3-(2,3-dichlorophenyl)-5-(2-hydroxyethyl)-2-methyl-3,4-dihydropyrimidin-4-one Hydrochloride] | 7
30 | Cc1c(N2CCc3cc(N)ccc3C2)nc(C)n(-c2cccc(Cl)c2Cl)c1=O [Compound 83, 6-(6-amino-1,2,3,4-tetrahydroisoquinolin-2-yl)-3-(2,3-dichlorophenyl)-2,5-dimethyl-3,4-dihydropyrimidin-4-one] | > 10
31 | Cc1c(N2CCN3CC(N)CC3C2)nc(C)n(-c2cccc(Cl)c2Cl)c1=O (stereo not drawn) [Compound 100, (3M)-6-7-amino-octahydropyrrolo[1,2-a]pyrazin-2-yl-3-(2,3-dichlorophenyl)-2,5-dimethyl-3,4-dihydropyrimidin-4-one] | 5.8
32 | Cc1c(N2CCC(C)(N)CC2)nc(C)n(-c2ccc3ccccc3c2)c1=O [Compound 39, 6-(4-Amino-4-methyl-piperidin-1-yl)-2,5-dimethyl-3-naphthalen-2-yl-3H-pyrimidin-4-one] | > 10
33 | Cc1c(N2CCCC(C)(CN)CC2)nc(C)n(-c2cccc(Cl)c2Cl)c1=O (stereo not drawn) [Compound 107, (3M)-6-[4-(aminomethyl)-4-methylazepan-1-yl]-3-(2,3-dichlorophenyl)-2,5-dimethyl-3,4-dihydropyrimidin-4-one] | 1.2
34 | Cc1c(N2CCC(C)(CN)CC2)nc(C)n(-c2ccc3nccnc3c2)c1=O [Compound 55, 6-(4-Aminomethyl-4-methyl-piperidin-1-yl)-2,5-dimethyl-3-quinoxalin-6-yl-3H-pyrimidin-4-one] | > 10

Second part, the compound after the results:

Row | IC50 [µM] | Compound
35 | 5.7 | Cc1nc(N2CCC(C)(CN)CC2)cc(=O)n1-c1c(F)ccc(Cl)c1Cl (single isomer, unassigned) [Compound 33b, (3M)-6-[4-(aminomethyl)-4-methylpiperidin-1-yl]-3-(2,3-dichloro-6-fluorophenyl)-2-methyl-3,4-dihydropyrimidin-4-one]
36 | 0.27 | Cc1nc(N2CCC3(CC2)Cc2ccccc2[C@H]3N)cc(=O)n1-c1cccc(Cl)c1Cl (single isomer, unassigned) [Compound 119a]
